What was measured:
[1] = Protein binding in rat brain assessed as unbound fraction; assay type: ADME, tissue-based
[2] = Ratio of unbound brain to plasma concentration in C57BL/6J mouse at 100 mg/kg, ip after 1 hr by LC-MS/MS analysis; assay type: ADME, organism-based; conditions: brain and plasma, read-out: K(p,uu,brain)
[3] = Total brain to plasma partition coefficient, Kp in C57BL/6J mouse at 100 mg/kg, ip after 1 hr by LC-MS/MS analysis; assay type: ADME, organism-based; conditions: brain and plasma
[4] = target: T1, Muscarinic acetylcholine receptor M1 (Rattus norvegicus, UniProt P08482); assay: (§1) Positive allosteric modulation of rat M1 receptor expressed in CHO cells assessed as increase in acetylcholine-induced calcium mobilization pretreated for 2.5 mins followed by acetylcholine addition and measured after 1 min by Fluo-4-AM dye based assay; assay type: functional, cell-based; conditions: read-out: EC50
T1 sequence (P08482 whole entry): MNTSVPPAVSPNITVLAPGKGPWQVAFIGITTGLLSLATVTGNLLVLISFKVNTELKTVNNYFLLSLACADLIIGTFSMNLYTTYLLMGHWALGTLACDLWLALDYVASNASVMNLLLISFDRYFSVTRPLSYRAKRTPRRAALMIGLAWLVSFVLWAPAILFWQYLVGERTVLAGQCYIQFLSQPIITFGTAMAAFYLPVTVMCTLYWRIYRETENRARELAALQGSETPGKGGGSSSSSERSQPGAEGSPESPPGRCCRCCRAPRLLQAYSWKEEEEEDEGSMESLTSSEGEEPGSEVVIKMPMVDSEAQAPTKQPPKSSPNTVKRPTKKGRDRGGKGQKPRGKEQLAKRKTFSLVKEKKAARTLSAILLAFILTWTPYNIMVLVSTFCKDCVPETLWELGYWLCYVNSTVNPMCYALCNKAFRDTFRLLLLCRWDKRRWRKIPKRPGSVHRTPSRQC

[5] = target: T2, Muscarinic acetylcholine receptor M1 (Rattus norvegicus) (UniProt P08482); assay: as §1; assay type: functional, cell-based
T2 sequence (whole entry): T1 sequence (P08482 whole entry)

[6] = target: T3, Muscarinic acetylcholine receptor M5 (Homo sapiens, UniProt P08912); assay: Positive allosteric modulation of human M5 receptor expressed in CHO cells assessed as increase in acetylcholine-induced calcium mobilization pretreated for 2.5 mins followed by acetylcholine addition and measured after 1 min by Fluo-4-AM dye based assay; assay type: functional, cell-based
T3 sequence (P08912 whole entry): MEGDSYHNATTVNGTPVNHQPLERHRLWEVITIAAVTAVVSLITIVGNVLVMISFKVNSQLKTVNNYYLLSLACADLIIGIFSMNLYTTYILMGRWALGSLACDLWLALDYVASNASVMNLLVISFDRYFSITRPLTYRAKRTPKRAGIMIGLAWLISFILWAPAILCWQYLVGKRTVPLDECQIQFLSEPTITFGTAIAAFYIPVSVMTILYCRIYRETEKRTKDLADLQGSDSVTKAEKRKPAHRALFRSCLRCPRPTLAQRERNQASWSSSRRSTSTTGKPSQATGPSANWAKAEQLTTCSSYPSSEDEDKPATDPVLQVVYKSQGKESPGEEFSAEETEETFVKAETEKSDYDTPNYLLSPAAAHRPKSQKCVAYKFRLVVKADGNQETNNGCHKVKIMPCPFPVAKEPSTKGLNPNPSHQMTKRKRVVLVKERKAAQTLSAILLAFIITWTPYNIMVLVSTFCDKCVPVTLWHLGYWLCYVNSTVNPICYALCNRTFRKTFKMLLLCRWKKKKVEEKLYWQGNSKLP

Cn1cc(-c2ccc(Cc3cc(C(=O)NC4CCOCC4)nc4c3ccn4C)cn2)cn1
fraction unbound [1]: 0.08
Kp uu at 1 h [2]: 0.18
Kp at 1 h [3]: 0.16
EC50 [4]: 230 nM
%max [5]: 93%
pKb [5]: 4.82
EC50 [6]: > 30000 nM
